{"source": "patent US20170189357A1", "about": "“METHODS OF LIMITING MORBIDITY IN HEMOGLOBINOPATHIES” (DUKE UNIVERSITY, priority 2014, published 2017)", "key": {"leukocytes": {"test_system": "leukocytes", "assay": "Leukocyte adhesion in transgenic sickle cell mice after TNFα challenge", "settings": "0.025, 0.05 and 0.1 mg/kg; versus vehicle"}, "human sickle RBCs": {"test_system": "human sickle RBCs", "assay": "Human sickle RBC adhesion and vaso-occlusion in TNFα-pretreated nude mice, intravital microscopy", "settings": "sickle RBCs treated ex vivo", "description": "FIG. 5 is a set of photographs and graphs showing that ERK in sickle RBCs promotes vaso-occlusion in nude mice in vivo. FIG. 5A, FIG. 5B and FIG. 5C are a set of photographs showing nude mice implanted with dorsal skin-fold window chambers after injection with murine TNFα. Four hours later, intravital microscopic observations of post-capillary venules and arterioles using 10× and 20× magnifications were conducted through the window chamber immediately after infusion of fluorescently labeled human sickle RBCs (n=5) that were sham-treated (FIG. 5A; panels 1, 2, 3 and 4) or treated with the MEK inhibitor RDEA119 (FIG. 5B panels 1, 2 and 3), or human normal (AA) RBCs (n=3) sham-treated (FIG. 5C; two panels on the left) or RDEA119-treated (FIG. 5C; 2 panels on the right). Vessels without adherent cells appear gray, due to the rapidly moving of fluorescence labeled RBCs. Adhesion of human sickle RBCs in enflamed vessels and vaso-occlusion are indicated with arrows and appear as white spots in the vessels. […] Scale bar=50 μm. FIG. 5D is a graph showing quantification of the fluorescence intensity of video frames of vessel and arteriole segments used to quantify adhesion in venules and arterioles of animals occupied by sickle RBCs (n=5 for each treatment). Adhesion of fluorescently labeled sham-treated sickle RBCs (sham-treated SS) and RDEA119-treated sickle RBCs (RDEA119-treated SS) in all vessels and arterioles recorded presented as fluorescence intensity [fluorescence unit (FU)] of adherent sickle RBCs. FIG. 5E-FIG. 5G are graphs showing the values of at least 180 segments of vessels and arterioles analyzed and averaged among groups of animals (n=5) to represent percentage of vessels occupied by adherent sickle RBCs (FIG. 5E); percentage of vessels with normal blood flow, slow blood flow and no blood flow (FIG. 5F), and percentage of normal flowing vessels (FIG. 5G). Error bars show SEM of 5 different experiments for each treatment condition, *: p<0.001 compared to sham-treated sickle RBCs regardless of the vessel diameter within the ranges specified for D, E and G. […]"}, "murine sickle RBCs": {"test_system": "murine sickle RBCs", "settings": "for inhibition of murine sickle RBC adhesion: versus vehicle, p<0.0001"}, "human normal (AA) RBCs": {"test_system": "human normal (AA) RBCs", "assay": "Normal human RBC adhesion in TNFα-pretreated nude mice, intravital microscopy", "settings": "normal human RBCs treated ex vivo", "from_the_text": "FIG. 5 is a set of photographs and graphs showing that ERK in sickle RBCs promotes vaso-occlusion in nude mice in vivo. FIG. 5A, FIG. 5B and FIG. 5C are a set of photographs showing nude mice implanted with dorsal skin-fold window chambers after injection with murine TNFα. […] Vessels without adherent cells appear gray, due to the rapidly moving of fluorescence labeled RBCs. […] FIG. 5D is a graph showing quantification of the fluorescence intensity of video frames of vessel and arteriole segments used to quantify adhesion in venules and arterioles of animals occupied by sickle RBCs (n=5 for each treatment). Adhesion of fluorescently labeled sham-treated sickle RBCs (sham-treated SS) and RDEA119-treated sickle RBCs (RDEA119-treated SS) in all vessels and arterioles recorded presented as fluorescence intensity [fluorescence unit (FU)] of adherent sickle RBCs. FIG. 5E-FIG. 5G are graphs showing the values of at least 180 segments of vessels and arterioles analyzed and averaged among groups of animals (n=5) to represent percentage of vessels occupied by adherent sickle RBCs (FIG. 5E); percentage of vessels with normal blood flow, slow blood flow and no blood flow (FIG. 5F), and percentage of normal flowing vessels (FIG. 5G). […]"}, "sickle cells": {"test_system": "sickle cells", "assay": "Hypoxia-induced sickle cell adhesion to microvascular endothelial cells, intermittent flow", "format": "cell-based, human", "settings": "hypoxia 8% O2 2 h, then RDEA119; shear stress 1-2 dynes/cm^2", "description": "Sickle cells were exposed to room air (sham) or hypoxia (H) (8% O2) for 2 h followed by treatment with RDEA119 MEK inhibitor, then washed. SSRBC adhesion to microvascular endothelial cells was tested in intermittent flow condition assays, and results are presented as % adherent SSRBCs at a shear stress of 1-2 dynes/cm^2. […] Error bars show SEM of 3 different experiments.\nOne of the major pathophysiologic processes in SCD is vasoocclusion in response to hypoxia."}, "ERK [1]": {"test_system": "ERK", "assay": "ERK phosphorylation in sickle RBCs exposed to hypoxia (Western blot of membrane ghosts)", "format": "cell-based, human", "settings": "hypoxia 8% oxygen 2 hours"}, "SSRBCs": {"test_system": "SSRBCs", "assay": "SSRBC adhesion to HUVECs after PTx/CTx treatment, with or without tyrosine kinase inhibitors, intermittent flow", "format": "cell-based, human", "settings": "1 μM inhibitor before 1 μg/ml PTx", "description": "FIG. 9 is a set of figures showing that activation of Gas protein increased SSRBC adhesion to endothelial cells via activation of tyrosine kinases. FIG. 9A is a schematic depiction of GPCR pathways along with inhibitors and stimuli of the kinases of these pathways regulating SSRBC adhesion. FIGS. 9B-E are a set of graphs showing adherence of RBCs which were sham-treated, or treated with Pertussis toxin (PTx) (0.5, 1 or 2 μg/ml) (FIGS. 9B-D), 1 μg/ml Cholera toxin (CTx) (FIG. 9B) or phenylarsine oxide (0.1, 10, 20, 40 and 80 μM) (FIG. 9E), or pretreated with 1 μM PP1, 1 μM PP2 or 1 μM piceatannol prior to treatment with 1 μg/ml PTx (FIG. 9C and FIG. 9D). Treated RBCs were tested for adhesion to HUVECs in intermittent flow conditions at different shear stresses. Data are presented as % adherent RBCs (FIG. 9B) or SSRBCs (FIG. 9C-FIG. 9E) at a shear stress of 2 dynes/cm^2. Each graph is representative of 3 different experiments. Error bars show standard error of the mean (SEM). *: p<0.001 compared to sham-treated RBCs; **: p<0.01 compared to PTx-treated RBCs.\nVaso-occlusion is associated with various types of physiological stress. β2-adrenergic receptors (β2AR) stimulation with catacholamines employs both Gas and &Gai (or Ga0) pathways. We first determined the Ga, Gas and/or Gai, in sickle cell regulating tyrosine kinase activation-mediated sickle cell adhesion to endothelial cells (FIG. 9A). Sickle cells adhered to some degree to endothelial cells under intermittent flow conditions at a shear stress of 2 dynes/cm^2. (FIGS. 9B-D). […] The selective Src-family kinase inhibitors, PP1 and PP2 (FIG. 9A), and the non-receptor tyrosine kinase p72^Syk inhibitor, piceatannol (FIG. 9A), inhibited the effect of PTx on sickle cell adhesion by 67±2.7%, 64±1.7% and 60 ±5.5%, respectively (p<0.01) (FIGS. 9C and 9D)."}, "sickle RBCs [2]": {"test_system": "sickle RBCs", "assay": "Sickle RBC adhesion to non-activated and TNFα-activated HUVECs, intermittent flow", "format": "cell-based, human", "settings": "U0126 10 μM; TNFα-activated HUVECs; shear stress 2 dynes/cm^2; p<0.05"}, "neutrophils (PMNs)": {"test_system": "neutrophils (PMNs)", "settings": "sickle RBCs treated with 10 μM U0126, then epinephrine; co-incubated with PMNs"}, "sickle RBCs [3]": {"test_system": "sickle RBCs", "settings": "20 nM epinephrine, non-activated HUVECs"}, "ERK [4]": {"test_system": "ERK", "settings": "20 nM epinephrine; n=19; p<0.05"}, "p60-c-Src": {"test_system": "p60-c-Src", "assay": "p60-c-Src phosphorylation in SSRBCs (Western blot of membrane ghosts)", "format": "cell-based, human", "settings": "1 μM inhibitor before 1 μg/ml PTx; p<0.0001", "from_the_text": "FIG. 10 is a set of figures showing inhibition of Gai protein increased phosphorylation of p72^syk and p60-c-Src tyrosine kinases in intact SSRBCs. FIG. 10A-FIG. 10G show the kinase expression results for twenty μg of membrane protein ghosts (SSRBC ghosts, n=7, SS1, SS2, SS3, SS4, SS5, SS6 and SS7; and normal RBC ghosts, n=7, AA1, AA2, AA3AA4, AA5, AA6 and AA7) were used per lane. FIG. 10A-FIG. 10D show Western blots and corresponding graphs showing the kinase expression results of protein ghosts which were stained with antibodies against phosphorylated p60-c-Src [p-p60-c-Src (SS1, SS2, SS3, SS4; and AA1, AA2, AA3, AA4)] and p60-c-Src [p60-c-Src (SS1, SS2, SS3, SS4, SS5, SS6, SS7, and AA1, AA2, AA3, AA4, AA5, AA6, AA7)]; and phosphorylated p72^syk [p-Syk (SS1, SS2, SS3, SS4; and AA1, AA2, AA3, AA4)] and p72^syk[Syk (SS1, SS2, SS3, SS4, SS5, SS6, SS7; and AA1, AA2, AA3, AA4, AA5, AA6, AA7)]. Antibody against glycophorin C was used as a loading control. FIG. 10C and FIG. 10D show the quantitative analysis of the data presented as relative kinase expression [SSRBCs (n=7) and AARBCs (n=7)], and as relative kinase phosphorylation [SSRBCs (n=4) and AARBCs (n=4)]. […] Quantitative analysis of the data (normalized according to total kinase expression) is presented as fold change in p60-c-Src phosphorylation (FIG. 10E and FIG. 10F) and Syk phosphorylation (FIG. 10G). […]"}, "human sickle red cell": {"test_system": "human sickle red cell", "settings": "systemic administration; cited from earlier work"}}, "note": "Read-outs that look alike come from different tables or passages of the source.", "data": [{"compound": "COc1cc(F)c(F)c(Nc2ccc(I)cc2F)c1NS(=O)(=O)C1(C[C@H](O)CO)CC1", "note": "[RDEA119]", "values": [{"measurement": "time to abrogation of leukocyte adhesion after administration", "setting": "leukocytes", "result": "≤ 10", "unit": "min"}, {"measurement": "vaso-occlusion by treated sickle cells", "setting": "human sickle RBCs; nude mice pretreated with TNFα", "result": "no visible vase-occlusion"}, {"measurement": "reduction of SSRBC adhesion compared to sham-treated SSRBCs", "setting": "human sickle RBCs; nude mice pretreated with TNFα, n=5, p<0.0001", "result": 88, "unit": "%"}, {"measurement": "vessels and arterioles with normal blood flow", "setting": "human sickle RBCs; nude mice, versus 50±5.5% with sham-treated cells", "result": "86±3.3", "unit": "%"}, {"measurement": "inhibition of murine sickle RBC adhesion", "setting": "murine sickle RBCs; 0.025 mg/kg infused 120 min after TNFα", "result": 76, "unit": "%"}, {"measurement": "inhibition of murine sickle RBC adhesion", "setting": "murine sickle RBCs; 0.05 mg/kg infused 120 min after TNFα", "result": 99, "unit": "%"}, {"measurement": "inhibition of murine sickle RBC adhesion", "setting": "murine sickle RBCs; 0.1 mg/kg infused 120 min after TNFα", "result": 98, "unit": "%"}, {"measurement": "time to reversal of murine sickle RBC adhesion after drug administration", "setting": "murine sickle RBCs; lowest dose 0.025 mg/kg, effect sustained over time", "result": "≤ 10", "unit": "min"}, {"measurement": "vessels with restored blood flow", "setting": "murine sickle RBCs; p<0.05 for each RDEA119 dose (0.025, 0.05, 0.1 mg/kg)", "result": 57, "unit": "%"}, {"measurement": "adherence of normal human RBCs in enflamed vessels", "setting": "human normal (AA) RBCs", "result": "no real adherence"}, {"measurement": "effect of hypoxia on sickle cell adhesion to endothelial cells", "setting": "sickle cells", "result": "almost completely inhibited"}]}, {"compound": "CC(C)=CCCC(C)=CCCC(C)=CCSc1ccccc1C(=O)O", "note": "[farnesylthiosalicylic acid]", "values": [{"measurement": "effect of hypoxia on ERK phosphorylation", "setting": "ERK [1]", "result": "decreased the effect of hypoxia on ERK phosphorylation"}]}, {"compound": "Oc1cc(O)cc(/C=C/c2ccc(O)c(O)c2)c1", "note": "[piceatannol]", "values": [{"measurement": "inhibition at 1 µM", "setting": "SSRBCs; Homo sapiens, HUVEC, shear stress 2 dynes/cm^2, p<0.01, read-out: inhibition of the effect of PTx on sickle cell adhesion", "result": "60 ± 5.5", "unit": "%"}]}, {"compound": "N#CC(=C(/N)Sc1ccccc1N)/C(C#N)=C(\\N)Sc1ccccc1N", "note": "[U0126]", "values": [{"measurement": "sickle cell adhesion to TNFα-activated endothelial cells", "setting": "sickle RBCs [2]", "result": "reduced sickle cell adhesion"}, {"measurement": "effect of hypoxia on ERK phosphorylation", "setting": "ERK [1]", "result": "decreased the effect of hypoxia on ERK phosphorylation"}, {"measurement": "sickle cell-induced PMN adhesion to endothelial cells", "setting": "neutrophils (PMNs)", "result": "decreased sickle cell-induced PMN adhesion"}, {"measurement": "epinephrine-activated sickle cell adhesion", "setting": "sickle RBCs [3]; U0126 10 μM", "result": "inhibited activated sickle cell adhesion"}]}, {"compound": "CNC[C@H](O)c1ccc(O)c(O)c1", "note": "[Epinephrine, epinephrine]", "values": [{"measurement": "phosphorylation of sickle cell ERK", "setting": "ERK [4]", "result": "increased phosphorylation of sickle cell ERK"}, {"measurement": "sickle cell adhesion to normal endothelial cells", "setting": "sickle RBCs [3]; shear stress 2 dynes/cm^2", "result": "increased sickle cell adhesion to normal endothelial cells"}]}, {"compound": "CC(C)(C)n1nc(-c2ccc(Cl)cc2)c2c(N)ncnc21", "note": "[PP2]", "values": [{"measurement": "inhibition of the effect of PTx on sickle cell adhesion", "setting": "SSRBCs; shear stress 2 dynes/cm^2, p<0.01", "result": "64±1.7", "unit": "%"}, {"measurement": "PTx-increased p60-c-Src phosphorylation in sickle cells", "setting": "p60-c-Src", "result": "to levels below baseline phosphorylation"}]}, {"compound": "O=C1Nc2ccc(I)cc2/C1=C/c1cc(Br)c(O)c(Br)c1", "note": "[GW5074]", "values": [{"measurement": "effect of hypoxia on ERK phosphorylation", "setting": "ERK [1]", "result": "decreased the effect of hypoxia on ERK phosphorylation"}]}, {"compound": "CC(C)NCC(O)COc1cccc2ccccc12", "note": "(centres unmarked) [propranolol]", "values": [{"measurement": "human sickle red cell adhesion and associated vasoocclusion in mice", "setting": "human sickle red cell", "result": "inhibited human sickle red cell adhesion"}]}]}
